According to patent US9289471B2, “Product and process for liquefaction of mucus or sputum” (National Jewish Health, priority 2002, dated 2016):

Key:
[1] = Compaction assay: percent liquid fraction of CF sputum; design: species or system human; conditions: for percent liquid fraction: 20 min (FIG. 3A)
Method: CF sputum stored at −80° C. was thawed at room temperature and aliquoted into 1.5 ml Eppendorf centrifuge tubes at volumes of 275 μl using a positive displacement pipette (Rainin, Emeryville, Calif.). Sputum samples were subjected to either diluent (H2O), Trx+TR+NADPH, GSH+glutathione reductase+NADPH, dithiothreitol (DTT) or N-acetylcysteine treatment by the addition of 25 μl of H2O containing the appropriate molar concentration of each agent. After brief vortexing (˜1 second), sample tubes were loaded onto a microtube rotisserie (Barnstead, Dubuque, Iowa) and incubated at 37° C. for 20 minutes. Samples were then processed for compaction assay according to methodology originated by Daugherty et al. (Daugherty et al., Biomaterials 16:553-558, 1995). To perform the assay, the contents of each sample were loaded into 100 μl glass micro-capillary tubes (Fisher Scientific) that had been previously welded to 200 μl pipette tips in order to achieve a tight fit. Three modified capillary tubes were used to draw up >90% of each sputum sample. Capillary tubes were then removed from their pipette tip, sealed with clay, and centrifuged for 10 minutes in a hematocrit centrifuge (IEC, Needham Heights, Mass.), followed by measurement of the length in millimeters of the gel (solid) and aqueous (liquid) phases in each tube. The percent liquid fraction of each capillary tube was calculated by dividing aqueous phase length by total length (gel+aqueous)×100. The three measurements of the liquid fraction (%) derived from each sample were then averaged to generate a single value for each treatment condition.
Due to abnormal ion transport caused by defects in the CFTR gene, airway secretions in CF patients are often desiccated. As a consequence, purulent CF sputum is comprised largely of a rigid and nonflowing biopolymer matrix, often referred to as gel phase, and lesser amounts of soluble, liquid phase. To assess the effect of Trx on the ratios of these two phases in sputum, compaction assay measurements were performed. […] After 20 minute incubation, the liquid fraction of each sample was determined by compaction assay.
To examine the effect of NADPH, additional samples from different donors were treated with 30 μM Trx, 0.1 μM TR and either 0, 0.2, 0.6, 1.0 or 2 mM NADPH for 20 minutes.
To assess the reproducibility of compaction assay measurements, sputum samples from three different CF donors were separated into aliquots and frozen. Specifically, freshly isolated CF sputum from three different donors (A, B, C) was separated into 275 μl aliquots and frozen. […] Results obtained from three independent experiments performed on each donor sample were used to evaluate assay reproducibility. On three consecutive days, aliquots were thawed, and treated with water, Trx and its reducing system, dithiothreitol (DTT), or no treatment.
The effectiveness of Trx in liquefying sputum was compared with other monothiol and dithiol reducing agents. Sputum samples were aliquoted and treated with Trx or GSH for 20 minutes and percent liquid determined by compaction assay. Initial compaction assay experiments compared the potencies of the Trx and GSH reducing systems in liquefaction of sputum in the presence of equimolar concentrations of NADPH. […] The analysis of Trx and NAC efficacy also was determined after 20 minute incubation, but on a different set of sputum samples.

[2] = Magnetic microrheometry: viscoelasticity (log G*) of CF sputum; design: species or system human; conditions: for decrease in log G* (before minus after exposure): 20 min (FIG. 4A); for log G* after treatment: 37° C., 20 minutes; for log G* after treatment / log G* before treatment: mean ± standard error; for decline in viscoelasticity (log G*): Trx (30 μM), TR (0.1 μM); for log G* before treatment: baseline, 4 samples
Method: Viscoelastic change in response to treatment was measured by means of a magnetic microrheometer as developed by King (King M., Magnetic microrheometer. In: Methods in Bronchial Mucology, edited by Braga P C, and Allegra L. New York: Raven Press, 1988, p. 73-83). An 80-120 μm steel sphere was placed in a 10 mg sputum sample. An electromagnet was used to oscillate this sphere, whose image was projected onto a pair of photocells via a microscope. […] G* was the mechanical impedance or vector sum of viscosity and elasticity. For Trx and NADPH dose response experiments, log G* at 10 rad/s was measured before any treatment (baseline), and then after 20 minute incubation with no treatment, diluent (H2O), or Trx with reducing system. All treatments were administered to the sample in a volume of H2O equal to 10% of total sample volume. One measurement was performed per aliquot of sample.
Magnetic microrheometry was performed to determine the effect of Trx and its reducing system on sputum viscosity. Measurements were performed on sputum samples before and after incubation with the Trx reducing system (Table 1) to determine the change in log G* (viscoelasticity).
In the experiment shown in FIG. […] Each column represents the mean±standard error for 4 samples (♦Statistically significant from H2O diluent value). […]

[3] = 10 μM Trx + 0.1 μM TR + 2 mM NADPH
[4] = 30 μM Trx + 0.1 μM TR + 2 mM NADPH

Substance: Trx: Lyophilized recombinant E. coli Trx from Promega; protein disulfide reductase, used with its reducing system (TR + NADPH)
- percent liquid fraction [1, 3]: 34.8±6.6%
- percent liquid fraction [1, 4]: 54.6±10.4%
- percentage of sputum present in the liquid phase ([1]; 30 μM Trx + 0.1 μM TR + 2 mM NADPH, 20 min, different donors (FIG. 1B)): 70.55±18.13%
- percentage of sputum present in the liquid phase ([1]; 30 μM Trx + 0.1 μM TR without NADPH, 20 min (FIG. 1B)): 2.9%±1.3
- percent liquid fraction ([1]; 60 μM Trx + 0.1 μM TR + 2 mM NADPH): 67.0±8.0%
- 3 day range of percent of sputum in the liquid state ([1]; donor B, 30 μM Trx with reducing system): 46-51%
- range of percent liquid values ([1]; donor C, 30 μM Trx with reducing system): 62-81%
- decrease in log G* (before minus after exposure) ([2]; 3 μM Trx + 0.1 μM TR + 2 mM NADPH): 0.26 log units
- log G* after treatment ([2]; 3 μM Trx + 0.1 μM TR and 2 μM NADPH): 3.11 ± 0.04
- decrease in log G* (before minus after exposure) [2, 3]: 0.39 log units
- log G* after treatment ([2]; 10 μM Trx + 0.1 μM TR and 2 μM NADPH): 2.94 ± 0.05
- decrease in log G* (before minus after exposure) [2, 4]: 0.65 log units
- log G* after treatment ([2]; 30 μM Trx + 0.1 μM TR and 2 μM NADPH): 2.63 ± 0.04
- sputum viscoelasticity ([2]; 20 minute treatment with 3, 10, or 30 μM Trx): significantly diminished
- decline in viscoelasticity (log G*) ([2]; 0.2 mM NADPH (FIG. 4B)): 0.16 log units
- decline in viscoelasticity (log G*) ([2]; 0.6 mM NADPH (FIG. 4B)): 0.26 log units
- decline in viscoelasticity (log G*) ([2]; 2 mM NADPH (FIG. 4B)): 0.39 log units
- log G* before treatment ([2]; aliquots for 3 μM Trx): 3.37 ± 0.06
- log G* before treatment ([2]; aliquots for 10 μM Trx): 3.33 ± 0.06
- log G* before treatment ([2]; aliquots for 30 μM Trx): 3.28 ± 0.04
